Laboratory results published in patent US4010161A, “Piperazinoethyl-N-(2,3-dimethyl-5-oxo-1-phenyl-3Δ-pyrazolin- 4-yl)carbamates” (Synthelabo, priority 1973, dated 1977).
Where a name gives a salt, the structure may show the parent alone.

Legend:
[1] = test system: pain induced, in CDl mice, by the intraperitoneal injection of acetic acid; test: Koster test: pain induced by intraperitoneal injection of acetic acid; assay type: in vivo; settings: Mus musculus, po, per os, AD50 = 50% active dose
Description: (§1) This effect was investigated in accordance with three conventional experimental procedures.
a. Effect against pain induced, in CDl mice, by the intraperitoneal injection of acetic acid, using the method described by Koster and colleagues (Fed. Proc., 1959, 18, 42) and modified by Peterfalvi, Branceni and colleagues, (Med. Pharmacol. exp., 1966, 15, 254).

[2] = test system: oedema induced by carragenine in SJ rats; test: Oedema induced by carragenine (anti-inflammatory effect); assay type: in vivo; settings: Rattus norvegicus, po, per os, AD40 = 40% active dose, read-out: Inflammation induced by carragenine AD40
Description: The test of oedema induced by carragenine in SJ rats, in accordance with the technique of Winter and colleagues, (Proc. Soc. exp. Biol. Med., 1962, III, 544) was used. The effects of the compounds of the invention are markedly lower than that of the reference product.

CD1 mice, tail-pinching = test: Haffner tail-pinching test; assay type: in vivo; settings: Mus musculus, po, per os, AD50 = 50% active dose
Description: as §1
c. Tail-pinching test on CD1 mice, using the method of Haffner (Deutsch. med. Wachr., 1959, 55, 731).

[3] = Acute toxicity, 50% lethal dose in mice; settings: mouse, in vivo, po; mice (CD1 strain, both sexes), per os; 50% lethal dose calculated graphically
Protocol: The experiments were carried out on mice of the CDl strain, of both sexes, and the 50% lethal doses were calculated graphically.

Solubility in water = assay type: physicochemical

Question: Which ED50 [1] does the source give for `Cc1ccc(N2CCN(CCOC(=O)Nc3c(C)n(C)n(-c4ccccc4)c3=O)CC2)cc1` [SLB-209, 2-(4-p-Tolyl-piperazino)-ethyl N-(2,3-dimethyl-5-oxo-1-phenyl-3Δ-pyrazolin-4-yl)-carbamate] here?
Answer: 25 mg/kg

Question: And the ED40 [2]?
Answer: > 100 mg/kg

Question: What about the ED50 (CD1 mice, tail-pinching) of the same molecule?
Answer: 15 mg/kg

Question: What about the LD50 [3] of the same molecule?
Answer: 410 mg/kg

Question: Which ED50 [1] does the source give for `Cc1c(NC(=O)OCCN2CCN(c3ccccc3)CC2)c(=O)n(-c2ccccc2)n1C` [SLB-197, 2-(4-Phenyl-piperazino)-ethyl N-(2,3-dimethyl-5-oxo-1-phenyl-3Δ-pyrazolin-4-yl)-carbamate] here?
Answer: 30 mg/kg

Question: What about the ED40 [2] of the same molecule?
Answer: > 100 mg/kg

Question: What about the LD50 [3] of the same molecule?
Answer: 400 mg/kg

Question: With `Cc1c(NC(=O)OCCN(C)C)c(=O)n(-c2ccccc2)n1C` [SLB-215, 2-Dimethylamino-ethyl N-(2,3-dimethyl-5-oxo-1-phenyl-3Δ-pyrazolin-4-yl)-carbamate] as the molecule, how does the ED50 [1] read?
Answer: 60 mg/kg

Question: What about the solubility in water (Solubility in water) of the same molecule?
Answer: very soluble in water

Question: What about the ED40 [2] of the same molecule?
Answer: > 100 mg/kg

Question: And the LD50 [3]?
Answer: > 1000 mg/kg

Question: What does the source list for `Cc1c(NC(=O)OCCN2CCN(c3cccc(Cl)c3)CC2)c(=O)n(-c2ccccc2)n1C` [SLB-207, 2-(4-m-Chlorophenyl-piperazino)-ethyl N-(2,3-dimethyl-5-oxo-1-phenyl-3Δ-pyrazolin-4-yl)-carbamate]?
Answer: ED50 [1]: 8 mg/kg; ED40 [2]: 100 mg/kg; ED50 (CD1 mice, tail-pinching): 10 mg/kg; LD50 [3]: 990 mg/kg

Question: For `Cc1c(NC(=O)OCCN2CCN(c3cccc(SC(F)(F)F)c3)CC2)c(=O)n(-c2ccccc2)n1C` [SLB-208, 2-(4-m-Trifluoromethylthiophenyl-piperazino)-ethyl N-(2,3-dimethyl-5-oxo-1-phenyl-3Δ-pyrazolin-4-yl)-carbamate], which ED50 [1] is on record?
Answer: 17 mg/kg

Question: And the ED40 [2]?
Answer: 76 mg/kg

Question: What about the LD50 [3] of the same molecule?
Answer: > 1000 mg/kg

Question: Which ED50 [1] does the source give for `Cc1c(NC(=O)OCCN2CCN(c3cccc(C(F)(F)F)c3)CC2)c(=O)n(-c2ccccc2)n1C` [SLB-186, 2-(4-m-Trifluoromethylphenyl-piperazino)-ethyl N-(2,3-dimethyl-5-oxo-1-phenyl-3Δ-pyrazolin-4-yl)-carbamate hydrochloride] here?
Answer: 8 mg/kg

Question: What about the ED40 [2] of the same molecule?
Answer: 100 mg/kg

Question: What about the ED50 (CD1 mice, tail-pinching) of the same molecule?
Answer: 10 mg/kg

Question: And the LD50 [3]?
Answer: 2000 mg/kg

Question: For `Cc1c(NC(=O)OCCN2CCN(c3cccc(Cl)c3)CC2)c(=O)n(-c2ccccc2)n1C` [2-(4-m-chlorophenyl-piperazino)-ethyl N-(2,3-dimethyl-5-oxo-1-phenyl-3Δ-pyrazolin-4-yl)-carbamate tartrate], which solubility in water (Solubility in water) is on record?
Answer: very soluble in water

Question: Which ED50 [1] does the source give for `Cc1c(N(C)C)c(=O)n(-c2ccccc2)n1C` [Aminopyrine, reference compound] here?
Answer: 40 mg/kg

Question: And the ED40 [2]?
Answer: 50 mg/kg

Question: What about the ED50 (CD1 mice, tail-pinching) of the same molecule?
Answer: 75 mg/kg
